Measured values published in ChEMBL document CHEMBL4354828, “Discovery of Taniborbactam (VNRX-5133): A Broad-Spectrum Serine- and Metallo-β-lactamase Inhibitor for Carbapenem-Resistant Bacterial Infections” (J Med Chem, 2020).
≈ marks a conversion by molar mass, not a printed value.

What was measured:
Type in all cases: functional
[1] = test system: Pseudomonas aeruginosa; assay: Antibacterial activity against wild type Pseudomonas aeruginosa 27853 after 16 to 20 hrs by CLSI-based microbroth dilution method
[2] = test system: Klebsiella pneumoniae; assay: Antibacterial activity against Klebsiella pneumoniae A-1797 expressing KPC-2/VIM-4/CMY-4 after 16 to 20 hrs by CLSI-based microbroth dilution method
[3] = test system: Klebsiella pneumoniae; assay: Antibacterial activity against Klebsiella pneumoniae UMM expressing SHV5/KPC-2/TEM-1 after 16 to 20 hrs by CLSI-based microbroth dilution method
[4] = test system: Escherichia coli; assay: Antibacterial activity against wild type Escherichia coli ATCC 25922 after 16 to 20 hrs by CLSI-based microbroth dilution method
[5] = test system: Staphylococcus aureus; assay: Antibacterial activity against methicillin resistant Staphylococcus aureus 33591 after 16 to 20 hrs by CLSI-based microbroth dilution method
[6] = test system: Klebsiella aerogenes; assay: Antibacterial activity against Enterobacter aerogenes 188548 expressing AmpC after 16 to 20 hrs by CLSI-based microbroth dilution method
[7] = test system: Enterobacter cloacae; assay: Antibacterial activity against Enterobacter cloacae 144200 expressing p99 AmpC after 16 to 20 hrs by CLSI-based microbroth dilution method
[8] = test system: Klebsiella pneumoniae; assay: Antibacterial activity against wild type Klebsiella pneumoniae CI 09 after 16 to 20 hrs by CLSI-based microbroth dilution method
[9] = test system: Klebsiella pneumoniae; assay: Antibacterial activity against Klebsiella pneumoniae 11978 expressing OXA-48 after 16 to 20 hrs by CLSI-based microbroth dilution method
[10] = test system: Escherichia coli; assay: Antibacterial activity against Escherichia coli J53 expressing SHV5/ AmpC/TEM-1 after 16 to 20 hrs by CLSI-based microbroth dilution method
[11] = test system: Pseudomonas aeruginosa; assay: Antibacterial activity against Pseudomonas aeruginosa Ps296 AmpC/VIM-2/TEM-1 after 16 to 20 hrs by CLSI-based microbroth dilution method
[12] = test system: Staphylococcus aureus; assay: Antibacterial activity against wild type Staphylococcus aureus ATCC 29213 after 16 to 20 hrs by CLSI-based microbroth dilution method

Row | Structure (SMILES) | MIC [1] [µg/mL] | MIC [2] [µg/mL] | MIC [3] [µg/mL] | MIC [4] [µg/mL] | MIC [5] [µg/mL] | MIC [6] [µg/mL] | MIC [7] [µg/mL] | MIC [8] [µg/mL] | MIC [9] [µg/mL] | MIC [10] [µg/mL] | MIC [11] [µg/mL] | MIC [12] [µg/mL]
1 | Cc1onc(-c2ccccc2)c1C(=O)N[C@@H]1C(=O)N2[C@@H]1SC(C)(C)[C@@H]2C(=O)O [OXACILLIN] | > 128 | > 128 | > 128 | > 128 | > 128 | > 128 | > 128 | > 128 | > 128 | > 128 | > 128 | 0.125 (≈ 0.311 µM)
2 | C[C@@H](O)[C@H]1C(=O)N2C(C(=O)O)=C(S[C@@H]3CN[C@H](C(=O)N(C)C)C3)[C@H](C)[C@H]12 [MEROPENEM] | 1 (≈ 2.61 µM) | – | – | 0.03 (≈ 0.0782 µM) | 32 (≈ 83.4 µM) | 2 (≈ 5.22 µM) | 0.25 (≈ 0.652 µM) | 0.06 (≈ 0.156 µM) | – | 0.06 (≈ 0.156 µM) | – | 0.06 (≈ 0.156 µM)
